The values that follow come from patent US11351178B2, “Selective HDAC6 inhibitors” (ITALFARMACO S.P.A., priority 2017, dated 2022).

Where two headings read alike, the source gives them in different places.

One test addresses T1, recombinant human HDAC3 (Homo sapiens, UniProt O15379).
T1 construct: purchased BPS 50003
The test is described as follows: Enzymatic screening on recombinant human HDAC3. It counts as biochemical. The settings on record: Table 3. As for the experimental part: Enzymatic activity on recombinant human HDAC6 and HDAC3 was evaluated (Table 2) for each synthesized compound.
(§1) After a period of incubation at 30° C. (incubation times vary for different isoforms and are shown in table 1) 25 μL of solution containing the substrate were added. As substrate, FLUOR DE LYS® deacetylase substrate (Enzo Life Sciences, cat #BML-K1104, FdL), FLUOR DE LYS®-Green substrate (Enzo Life Sciences, cat #BML-K1572 FdL_G) and trifluoroacetyl-L-lysine (Tfal)-2× concentrated solution in 25 mM Tris-HCl, pH 8, 130 mM NaCl 0.05% Tween-20 10% glycerol) were used. Following a reaction period at 30° C.

The target of the next test is T2, HDAC4 (Homo sapiens, UniProt P56524).
T2 construct: purchased BPS 50004
Nature of the test: Enzymatic test HDAC4. The settings on record: Table 3. The test is classed as biochemical. As for the experimental part: as §1

A further test addresses T3, HDAC7 (Homo sapiens, UniProt Q8WUI4).
T3 construct: purchased BPS 50007
T3 sequence (Q8WUI4 518-952 limits assumed): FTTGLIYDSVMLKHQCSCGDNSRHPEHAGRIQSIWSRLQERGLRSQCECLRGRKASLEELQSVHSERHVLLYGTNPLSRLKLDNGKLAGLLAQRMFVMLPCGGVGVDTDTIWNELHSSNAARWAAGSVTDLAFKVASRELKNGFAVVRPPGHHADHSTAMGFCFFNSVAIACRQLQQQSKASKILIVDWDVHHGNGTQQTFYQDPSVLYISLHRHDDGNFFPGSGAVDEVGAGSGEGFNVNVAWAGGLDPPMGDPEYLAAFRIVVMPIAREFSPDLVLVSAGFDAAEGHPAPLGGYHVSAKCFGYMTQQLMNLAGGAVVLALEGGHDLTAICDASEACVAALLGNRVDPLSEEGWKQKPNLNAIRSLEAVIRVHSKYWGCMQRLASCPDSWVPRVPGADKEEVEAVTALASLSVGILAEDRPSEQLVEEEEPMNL
The test is described as follows: Enzymatic test HDAC7. The test is classed as biochemical. The settings on record: Table 3. How it is done: as §1

The target in another test is T4, HDAC9 (Homo sapiens, UniProt Q9UKV0).
T4 construct: purchased BPS 50009
Nature of the test: Enzymatic test HDAC9. It counts as biochemical. The note with it: Table 3. As for the experimental part:
as §1

The next test has as its system human PBMCs. Nature of the test: Mixed Lymphocytes Reaction (MLR) with human PBMCs (IFN-γ, TNF-α, IL-6). The note with it: PBMC, 144 h, two-way MLR, 6 days, 1 μM, negative = induction. The test is classed as cell-based. As for the experimental part: In order to study HDAC6 inhibitors ability to inhibit the activation of allogenic T CD4+ cells, a Mixed Lymphocytes Reaction (MLR or mixed lymphocyte culture, CLM) assay was performed. This is a reaction involving blast transformation of in vitro cultured lymphocytes in the presence of allogeneic lymphocytes. There is the so-called “two-way” reaction wherein the two lymphocyte populations stimulate each other to proliferate, and the so-called “one way” reaction, wherein the proliferation of one of the two populations is inhibited by mitomycin C or irradiation, these cells provide proliferation stimulus (stimulator) to the so-called “responder” cells.
Human peripheral blood mononuclear cells (PBMCs) used in MLR were obtained by Ficoll gradient separation from Buffy Coat of healthy donors.
We used a two-way MLR. The cells from the two donors were plated at 1:1 ratio (allogenic stimulation) to the final concentration of 2×10^5 per well in U-bottom 96 well plates in RPMI 1640 medium with 10% FBS and antibiotics. As a control we individually plated the cells from each donor (singenic stimulus). The experiment for each inhibitor was set in deduplicate for allogeneic stimuli and in quintuplicate for singenic stimuli. The cells were cultured for 6 days in an incubator at 37° C.
After 6 days the effect of the test compounds was evaluated by measuring the production of pro-inflammatory cytokines recognized to be characteristics of this assay.
For this purpose, the culture supernatant was harvested and used for IFN-γ, TNF-α and IL-6 inflammatory cytokine assay.
The JAK inhibitor ruxolitinib was used as the active reference compound in the test.
Values in the table indicate the inhibition percentages. Negative values indicate an induction.

The mark [1] stands for this setting: read-out: MLR IFN-γ inhibition percentage.
Where [2] appears, read: read-out: MLR IL-6 inhibition percentage.
Where [3] appears, read: read-out: MLR TNF-α inhibition percentage.

T4 sequence (Q9UKV0 1-1066 isoform Q9UKV0-5): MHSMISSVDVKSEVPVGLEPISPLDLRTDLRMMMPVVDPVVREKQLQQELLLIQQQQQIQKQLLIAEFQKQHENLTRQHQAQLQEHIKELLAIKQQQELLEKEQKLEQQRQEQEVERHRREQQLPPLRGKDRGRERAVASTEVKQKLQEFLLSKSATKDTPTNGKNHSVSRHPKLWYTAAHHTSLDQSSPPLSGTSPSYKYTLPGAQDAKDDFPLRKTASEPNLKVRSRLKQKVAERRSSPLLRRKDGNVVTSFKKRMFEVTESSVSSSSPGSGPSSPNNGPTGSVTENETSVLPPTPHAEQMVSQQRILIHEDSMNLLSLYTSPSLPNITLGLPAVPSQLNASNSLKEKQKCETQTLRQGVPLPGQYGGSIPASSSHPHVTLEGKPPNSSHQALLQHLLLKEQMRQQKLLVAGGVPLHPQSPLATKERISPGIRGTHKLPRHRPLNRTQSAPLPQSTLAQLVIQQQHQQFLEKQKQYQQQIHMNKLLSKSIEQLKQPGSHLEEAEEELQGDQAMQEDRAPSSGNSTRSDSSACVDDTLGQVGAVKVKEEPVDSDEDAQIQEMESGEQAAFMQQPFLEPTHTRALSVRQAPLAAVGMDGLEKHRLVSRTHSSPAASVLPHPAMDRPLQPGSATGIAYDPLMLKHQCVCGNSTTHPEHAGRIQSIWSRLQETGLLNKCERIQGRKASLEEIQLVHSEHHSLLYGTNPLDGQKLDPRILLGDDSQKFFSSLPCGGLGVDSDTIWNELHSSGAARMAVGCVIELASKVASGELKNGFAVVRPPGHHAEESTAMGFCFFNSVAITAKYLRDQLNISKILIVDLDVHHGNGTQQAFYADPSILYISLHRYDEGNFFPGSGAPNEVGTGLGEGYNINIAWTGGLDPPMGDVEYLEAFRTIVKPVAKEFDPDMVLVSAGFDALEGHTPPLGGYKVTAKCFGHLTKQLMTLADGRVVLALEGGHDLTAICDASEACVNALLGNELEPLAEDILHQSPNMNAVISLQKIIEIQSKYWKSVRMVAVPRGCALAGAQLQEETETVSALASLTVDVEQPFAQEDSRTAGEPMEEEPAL
T2 sequence (P56524 627-1084 limits assumed): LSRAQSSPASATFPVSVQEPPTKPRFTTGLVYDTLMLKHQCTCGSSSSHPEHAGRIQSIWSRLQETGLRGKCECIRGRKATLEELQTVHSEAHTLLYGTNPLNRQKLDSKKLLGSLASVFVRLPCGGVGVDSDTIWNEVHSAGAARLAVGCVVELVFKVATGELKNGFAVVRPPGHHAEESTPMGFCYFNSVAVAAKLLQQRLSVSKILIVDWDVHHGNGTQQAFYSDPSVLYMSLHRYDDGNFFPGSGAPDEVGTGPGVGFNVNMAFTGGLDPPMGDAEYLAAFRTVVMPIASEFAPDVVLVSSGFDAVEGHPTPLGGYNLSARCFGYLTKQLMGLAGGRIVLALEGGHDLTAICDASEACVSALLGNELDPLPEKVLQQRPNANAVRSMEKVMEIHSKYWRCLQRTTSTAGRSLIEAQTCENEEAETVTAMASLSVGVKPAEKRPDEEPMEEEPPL
T1 sequence (O15379 whole entry): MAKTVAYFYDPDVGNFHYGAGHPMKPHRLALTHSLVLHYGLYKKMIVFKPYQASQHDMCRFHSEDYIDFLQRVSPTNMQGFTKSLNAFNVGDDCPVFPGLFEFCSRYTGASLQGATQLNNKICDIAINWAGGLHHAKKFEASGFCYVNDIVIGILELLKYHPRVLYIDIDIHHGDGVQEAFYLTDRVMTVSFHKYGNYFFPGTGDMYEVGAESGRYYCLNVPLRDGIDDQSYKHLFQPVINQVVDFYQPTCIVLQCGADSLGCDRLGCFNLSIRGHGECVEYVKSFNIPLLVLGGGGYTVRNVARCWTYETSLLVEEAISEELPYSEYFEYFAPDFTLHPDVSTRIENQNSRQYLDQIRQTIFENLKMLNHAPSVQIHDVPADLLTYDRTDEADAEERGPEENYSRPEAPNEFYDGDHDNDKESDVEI
T1 sequence (Q9Y618 395-489 partner limits assumed): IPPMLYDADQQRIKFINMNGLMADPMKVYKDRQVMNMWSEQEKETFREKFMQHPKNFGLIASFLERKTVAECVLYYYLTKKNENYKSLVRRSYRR

By IC50 is commonly meant the midpoint of a concentration-inhibition curve. One may read the inhibition as the change of the read-out against control, counted positive when it falls. In the case of `O=C(NO)c1cc(F)c(Cn2nnnc2-c2ccccn2)c(F)c1` [comp. 13, 3,5-difluoro-N-hydroxy-4-((5-(pyridin-2-yl)-1H-tetrazol-1-yl)methyl)benzamide], the IC50 on recombinant human HDAC3 amounted to 2490 nM; against HDAC4, 606 nM; on HDAC7 it was 623 nM; at HDAC9, 640 nM. The inhibition at 1 µM was -10.9% with human PBMCs (setting [1]), 38.3% with human PBMCs (setting [2]) and 37.2% with human PBMCs (setting [3]).
As to `O=C(NO)c1cc(F)c(Cn2nnc(-c3ccccn3)n2)c(F)c1` [comp. 6, 3,5-difluoro-N-hydroxy-4-((5-(pyridin-2-yl)-2H-tetrazol-2-yl)methyl)benzamide], the IC50 came to 7260 nM on recombinant human HDAC3, 1040 nM against HDAC4, 750 nM on HDAC7 and 756 nM on HDAC9. In addition, the inhibition at 1 µM was -6.5% in the test with human PBMCs (setting [1]), 15.5% in the test on human PBMCs (setting [2]) and 13.5% in the test with human PBMCs (setting [3]).
Turning to `CN(C)c1cccc(-c2nnc(Sc3ccc(C(=O)NO)cc3)n2C)c1` [comp. 77, 4-[[5-[3-(dimethylamino)phenyl]-4-methyl-1,2,4-triazol-3-yl]sulfanyl]benzenecarbohydroxamic acid], the IC50 on recombinant human HDAC3 stood at 1150 nM; against HDAC4, 2650 nM; against HDAC7, 1360 nM; against HDAC9, 1730 nM. The figures for the inhibition at 1 µM in the test on human PBMCs (setting [1]), in the test with human PBMCs (setting [2]) and in the test with human PBMCs (setting [3]) were 32.1%, 34.3% and 64.2%, respectively.
On to `CCN(CC)S(=O)(=O)c1cccc(-c2nnc(Sc3ccc(C(=O)NO)cc3)n2N)c1` [comp. 61, 4-[[4-amino-5-[3-(diethylsulfamoyl)phenyl]-1,2,4-triazol-3-yl]sulfanyl]benzenecarbohydroxamic acid], for which the IC50 at recombinant human HDAC3 worked out at 488 nM; on HDAC4 it was 1590 nM; against HDAC7, 529 nM; against HDAC9, 884 nM. Also, the inhibition at 1 µM with human PBMCs (setting [1]) was 16%; in the test on human PBMCs (setting [2]) it was -21%.
Turning to `O=C(NO)c1cc(F)c(Cn2nnc(-c3cccs3)n2)c(F)c1` [comp. 65, 3,5-difluoro-4-[[5-(2-thienyl)tetrazol-2-yl]methyl]benzenecarbohydroxamic acid], the IC50 was found to be 1860 nM on recombinant human HDAC3, 831 nM against HDAC4, 1080 nM against HDAC7 and 995 nM on HDAC9. The inhibition at 1 µM turned out to be 45% in the test with human PBMCs (setting [1]), 5.4% with human PBMCs (setting [2]) and 67.3% in the test on human PBMCs (setting [3]).
`Cc1cc(-c2nnc(Sc3ccc(C(=O)NO)cc3)n2C)nn1C` [comp. 85, 4-[[5-(1,5-dimethylpyrazol-3-yl)-4-methyl-1,2,4-triazol-3-yl]sulfanyl]benzenecarbohydroxamic acid]: the IC50 on recombinant human HDAC3 stood at 339 nM; on HDAC4, 1030 nM; against HDAC7, 514 nM; on HDAC9 it was 452 nM. In addition, the inhibition at 1 µM amounted to 51.8% in the test on human PBMCs (setting [1]), 66.9% with human PBMCs (setting [2]) and 73.8% in the test on human PBMCs (setting [3]).
In the case of `O=C(NO)c1cc(F)c(Cn2nnc(-c3ccco3)n2)c(F)c1` [comp. 19, 3,5-difluoro-4-((5-(furan-2-yl)-2H-tetrazol-2-yl)methyl)-N-hydroxybenzamide], the IC50 on recombinant human HDAC3 was 2640 nM; against HDAC4 it was 675 nM; against HDAC7 it was 1020 nM; against HDAC9, 592 nM. The values for the inhibition at 1 µM with human PBMCs (setting [1]), in the test with human PBMCs (setting [2]) and in the test with human PBMCs (setting [3]) were -7.85%, 4.62% and 25.9%, respectively.
